This assay deals with Mus musculus. The assay is described as follows: Anticarcinogenic activity in A/J mouse assessed as inhibition of Benzo(a)pyrene-induced tumorigenesis at 0.4 g/kg in diet for 21 days by mouse lung tumor inhibition study. It counts as functional, organism-based.

Active and inactive are the calls of the source. The rule behind the calls is not given here.

`O=c1oc2c(O)c(O)cc3c(=O)oc4c(O)c(O)cc1c4c23`: the result was Active. Take `CC(=O)OC[C@H]1O[C@@H](Oc2c(OC(C)=O)cc3c(=O)oc4c(O[C@@H]5O[C@H](COC(C)=O)[C@@H](OC(C)=O)[C@H](OC(C)=O)[C@H]5OC(C)=O)c(OC(C)=O)cc5c(=O)oc2c3c45)[C@H](OC(C)=O)[C@@H](OC(C)=O)[C@@H]1OC(C)=O`: the result was Active. `CCCCCCCCOc1c(OC(=O)CCCCC)cc2c(=O)oc3c(OCCCCCCCC)c(OC(=O)CCCCC)cc4c(=O)oc1c2c34`: the outcome was Active.
